Measured values taken from USRE38117E1, “Trioxane dimer compound having antiproliferative and antitumor activities” (Hauser, Inc., priority 1995, dated 2003).
Where two headings read alike, the source gives them in different places.

Legend:
Format in all cases: cell-based
SK-OV-3 = test: NCI 60 cell line screen (SRB), Ovarian Cancer; details: SK-OV-3 (Ovarian Cancer)
SW-620 = test: NCI 60 cell line screen (SRB), Colon Cancer; details: SW-620 (Colon Cancer)
IGROVI = test: NCI 60 cell line screen (SRB), Ovarian Cancer
MCF7 = test: NCI 60 cell line screen (SRB), Breast Cancer
SF-268 = test: NCI 60 cell line screen (SRB), CNS Cancer; details: SF-268 (CNS Cancer)
KM12 = test: NCI 60 cell line screen (SRB), Colon Cancer
NCI-H522 = test: NCI 60 cell line screen (SRB), Non-Small Cell Lung Cancer
OVCAR-8 = test: NCI 60 cell line screen (SRB), Ovarian Cancer; details: OVCAR-8 (Ovarian Cancer)
NCI-H322M = test: NCI 60 cell line screen (SRB), Non-Small Cell Lung Cancer
UO-31 = test: NCI 60 cell line screen (SRB), Renal Cancer; details: UO-31 (Renal Cancer)
[1] = system: murine keratinocyte cell line PE; test: Growth inhibition of PE cells (MTT assay); details: murine keratinocytes, FIGS. 1-9
Method: To determine the inhibitory effect of the trioxane dimers of the present invention on cell proliferation, screening assays were performed on a murine keratinocyte cell line PE. […] PE cell culture medium consisted of Eagle's minimal essential medium without calcium chloride (Whittaker Bioproducts, Walkersville, Ma.) supplemented with 8% chelexed fetal calf serum and 1% antibiotic-antimycotic (Gibco BRL) and the addition of CaCl2 to 0.05 mM Ca^++. […] (St. Louis, Mo.), and TPA was supplied by L. C. Services (Woburn, Ma.). L-[^14C]ornithine ([…]) was from Amersham/Searle Corp. (Arlington Heights, Ill.). Chemical solvents used in all assays of biological activity were of the highest grade commercially available. Growth Inhibition. […] A mitochondrial dehydrogenase reduces MTT to a blue formazan product with an absorbance maximum of 505 nm in DMSO; the number of viable cells can thus be determined spectrophotometrically. PE cells were seeded at a density of 5,000 cells/well in 50 μL of medium into 96-well microtiter plates. […] The plates were fed once at 48 h, with the readdition of the vitamin D3 analogs at this time. […] After 4 h, the MTT was removed and DMSO added to dissolve the blue formazan dye. Using a microtiter plate reader, the […] was then determined and cell number calculated from blank-subtracted absorbance values.

RPMI-8226 = test: NCI 60 cell line screen (SRB), Leukemia; details: RPMI-8226 (Leukemia)
LOX IMVI = test: NCI 60 cell line screen (SRB), Melanoma
BT-549 = test: NCI 60 cell line screen (SRB), Breast Cancer; details: BT-549 (Breast Cancer)
SNB-19 = test: NCI 60 cell line screen (SRB), CNS Cancer; details: SNB-19 (CNS Cancer)
60 cell line panel = test: NCI 60 cell line screen, values over the whole panel; details: mean value over the cell line panel
OVCAR-5 = test: NCI 60 cell line screen (SRB), Ovarian Cancer; details: OVCAR-5 (Ovarian Cancer)
NCI-H226 = test: NCI 60 cell line screen (SRB), Non-Small Cell Lung Cancer
A549/ATCC = test: as above
PC-3 = test: NCI 60 cell line screen (SRB), Prostate Cancer; details: PC-3 (Prostate Cancer)
HT29 = test: NCI 60 cell line screen (SRB), Colon Cancer
SR = test: NCI 60 cell line screen (SRB), Leukemia
COLO 205 = test: NCI 60 cell line screen (SRB), Colon Cancer; details: COLO 205 (Colon Cancer)
HL-60(TB) = test: NCI 60 cell line screen (SRB), Leukemia
SK-MEL-2 = test: NCI 60 cell line screen (SRB), Melanoma; details: SK-MEL-2 (Melanoma)
MDA-MB-435 = test: NCI 60 cell line screen (SRB), Breast Cancer; details: MDA-MB-435 (Breast Cancer)
M14 = test: NCI 60 cell line screen (SRB), Melanoma

COC1OC2(C)CCC3CCCC(CCOCCC4CCCC5CCC6(C)OOC45C(OC)O6)C31OO2 (centres unmarked) [Compound 6, Trioxane Ether Dimer]
Log10LC50 (SK-OV-3): >−4.00 M
Log10TGI (SK-OV-3): >−4.00 M
Log10GI50 (SW-620): −6.66 M
Log10LC50 (SW-620): >−4.00 M
Log10TGI (SW-620): >−4.00 M
Log10GI50 (IGROVI): −5.37 M
Log10LC50 (IGROVI): >−4.00 M
Log10TGI (IGROVI): −4.13 M
Log10GI50 (MCF7): −6.37 M
Log10LC50 (MCF7): >−4.00 M
Log10TGI (MCF7): >−4.00 M
Log10GI50 (SF-268): −5.07 M
Log10LC50 (SF-268): >−4.00 M
Log10TGI (SF-268): >−4.00 M
Log10GI50 (KM12): −6.85 M
Log10LC50 (KM12): >−4.00 M
Log10TGI (KM12): −4.28 M
Log10GI50 (NCI-H522): −6.13 M
Log10LC50 (NCI-H522): >−4.00 M
Log10TGI (NCI-H522): −4.76 M
Log10GI50 (OVCAR-8): −6.33 M
Log10LC50 (OVCAR-8): >−4.00 M
Log10TGI (OVCAR-8): >−4.00 M
Log10GI50 (NCI-H322M): >−4.00 M
Log10LC50 (NCI-H322M): >−4.00 M
Log10TGI (NCI-H322M): >−4.00 M
Log10GI50 (UO-31): −6.37 M
Log10LC50 (UO-31): −4.38 M
antiproliferative activity [1]: the most antiproliferative
Log10GI50 (RPMI-8226): −6.69 M
Log10LC50 (RPMI-8226): >−4.00 M
Log10TGI (RPMI-8226): −5.47 M
Log10GI50 (LOX IMVI): −6.52 M
Log10LC50 (LOX IMVI): −4.33 M
Log10TGI (LOX IMVI): −4.83 M
Log10GI50 (BT-549): −5.89 M
Log10LC50 (BT-549): >−4.00 M
Log10TGI (BT-549): >−4.00 M
Log10GI50 (SNB-19): −5.01 M
Log10LC50 (SNB-19): >−4.00 M
Log10TGI (SNB-19): >−4.00 M
Log10LC50 MG MID (60 cell line panel): −4.05 M
Log10TGI MG MID (60 cell line panel): −4.26 M
Log10GI50 (OVCAR-5): −6.39 M
Log10LC50 (OVCAR-5): >−4.00 M
Log10TGI (OVCAR-5): >−4.00 M
Log10GI50 (NCI-H226): −5.36 M
Log10LC50 (NCI-H226): >−4.00 M
Log10TGI (NCI-H226): >−4.00 M
Log10GI50 (A549/ATCC): −5.79 M
Log10LC50 (A549/ATCC): >−4.00 M
Log10TGI (A549/ATCC): >−4.00 M
Log10GI50 (PC-3): −7.85 M
Log10LC50 (PC-3): −4.00 M
Log10TGI (PC-3): −4.75 M
Log10GI50 (HT29): −6.24 M
Log10LC50 (HT29): >−4.00 M
Log10TGI (HT29): >−4.00 M
Log10GI50 (SR): −7.19 M
Log10LC50 (SR): >−4.00 M
Log10TGI (SR): −5.93 M
Log10GI50 (COLO 205): −6.85 M
Log10LC50 (COLO 205): −5.77 M
Log10TGI (COLO 205): −6.36 M
Log10GI50 (HL-60(TB)): −6.48 M
Log10LC50 (HL-60(TB)): >−4.00 M
Log10TGI (HL-60(TB)): −5.77 M
Log10GI50 (SK-MEL-2): −5.86 M
Log10LC50 (SK-MEL-2): >−4.00 M
Log10TGI (SK-MEL-2): −4.13 M
Log10GI50 (MDA-MB-435): −6.38 M
Log10LC50 (MDA-MB-435): >−4.00 M
Log10TGI (MDA-MB-435): >−4.00 M
Log10GI50 (M14): −5.59 M
Log10LC50 (M14): >−4.00 M
Log10TGI (M14): >−4.00 M

COC1OC2(C)CCC3CCCC(CCOC(=O)c4ccc(C(=O)OCCC5CCCC6CCC7(C)OOC56C(OC)O7)cc4)C31OO2 (centres unmarked) [Compound 11, Bis-ester Dimer]
Log10GI50 (SK-OV-3): −5.28 M
Log10LC50 (SK-OV-3): >−4.00 M
Log10TGI (SK-OV-3): >−4.00 M
Log10GI50 (SW-620): −6.12 M
Log10LC50 (SW-620): >−4.00 M
Log10TGI (SW-620): >−4.00 M
Log10GI50 (IGROVI): −4.95 M
Log10LC50 (IGROVI): >−4.00 M
Log10TGI (IGROVI): >−4.00 M
Log10GI50 (MCF7): −5.86 M
Log10LC50 (MCF7): >−4.00 M
Log10TGI (MCF7): >−4.00 M
Log10GI50 (SF-268): −5.14 M
Log10LC50 (SF-268): >−4.00 M
Log10TGI (SF-268): >−4.00 M
Log10GI50 (KM12): −6.24 M
Log10LC50 (KM12): >−4.00 M
Log10TGI (KM12): >−4.00 M
Log10GI50 (NCI-H522): −5.66 M
Log10LC50 (NCI-H522): >−4.00 M
Log10TGI (NCI-H522): −4.45 M
Log10GI50 (OVCAR-8): −6.03 M
Log10LC50 (OVCAR-8): >−4.00 M
Log10TGI (OVCAR-8): >−4.00 M
Log10GI50 (NCI-H322M): −4.69 M
Log10LC50 (NCI-H322M): >−4.00 M
Log10TGI (NCI-H322M): >−4.00 M
Log10GI50 (UO-31): −5.63 M
Log10LC50 (UO-31): >−4.00 M
Log10TGI (UO-31): >−4.00 M
antiproliferative activity [1]: high antiproliferative activity
Log10GI50 (RPMI-8226): −6.33 M
Log10LC50 (RPMI-8226): >−4.00 M
Log10TGI (RPMI-8226): −5.10 M
Log10GI50 (LOX IMVI): −6.28 M
Log10LC50 (LOX IMVI): >−4.00 M
Log10TGI (LOX IMVI): >−4.00 M
Log10GI50 (BT-549): −5.44 M
Log10LC50 (BT-549): >−4.00 M
Log10TGI (BT-549): >−4.00 M
Log10GI50 (SNB-19): −5.31 M
Log10LC50 (SNB-19): >−4.00 M
Log10TGI (SNB-19): >−4.00 M
Log10GI50 MG MID (60 cell line panel): −5.59 M
Log10LC50 MG MID (60 cell line panel): −4.04 M
Log10TGI MG MID (60 cell line panel): −4.19 M
Log10GI50 (OVCAR-5): −5.45 M
Log10LC50 (OVCAR-5): >−4.00 M
Log10TGI (OVCAR-5): >−4.00 M
Log10GI50 (NCI-H226): −5.26 M
Log10LC50 (NCI-H226): >−4.00 M
Log10TGI (NCI-H226): >−4.00 M
Log10GI50 (A549/ATCC): −5.42 M
Log10LC50 (A549/ATCC): >−4.00 M
Log10TGI (A549/ATCC): >−4.00 M
Log10GI50 (PC-3): −6.51 M
Log10LC50 (PC-3): >−4.00 M
Log10TGI (PC-3): >−4.00 M
Log10GI50 (HT29): −5.90 M
Log10LC50 (HT29): >−4.00 M
Log10TGI (HT29): >−4.00 M
Log10GI50 (SR): −6.38 M
Log10LC50 (SR): >−4.00 M
Log10TGI (SR): −5.17 M
Log10GI50 (COLO 205): −6.31 M
Log10LC50 (COLO 205): −5.17 M
Log10TGI (COLO 205): −5.71 M
Log10GI50 (HL-60(TB); HL-60(TB) (Leukemia)): −7.42 M
Log10LC50 (HL-60(TB); HL-60(TB) (Leukemia)): −5.26 M
Log10TGI (HL-60(TB); HL-60(TB) (Leukemia)): −6.58 M
Log10GI50 (SK-MEL-2): −5.47 M
Log10LC50 (SK-MEL-2): >−4.00 M
Log10TGI (SK-MEL-2): −5.04 M
Log10GI50 (MDA-MB-435): −5.69 M
Log10LC50 (MDA-MB-435): >−4.00 M
Log10TGI (MDA-MB-435): −4.63 M
Log10GI50 (M14): −5.20 M
Log10LC50 (M14): >−4.00 M
Log10TGI (M14): >−4.00 M
